# Laboratory results reported in paper PMC4977052, “On the Utility of ToxCast™ and ToxPi as Methods for Identifying New Obesogens” (Environmental Health Perspectives, 2016).
# Like-named read-outs stand apart in the source and are kept apart here.
# Key:
# 3T3-L1 preadipocytes = assay: 3T3-L1 adipogenesis assay (lipid accumulation, adipogenic gene expression); assay type: cell-based; conditions: for Adipogenesis 3T3-L1 (result in words): 0.02-20 μM, 5 days after MDI induction; for Adipogenic gene expression (Fabp4, Fsp27, Lpl), QPCR: 3T3-L1, Figure 2A; for Induction of adipogenesis in 3T3-L1 preadipocytes, doses: lipid accumulation, Nile red/Hoechst, Figure 2A
# Method in brief: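 After 2-day MDI induction with biotin and pantothenate, 3T3-L1 cells were treated 5 days with chemicals at 0.02–20 μM (0.1% DMSO; 10 μM if toxic). Lipid read as Nile red/Hoechst fluorescence ratio; adipogenic genes by QPCR, 2^ΔΔCt versus 36b4, normalized to DMSO.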
# PPARγ = test system: PPARγ; set-up: method as in Filer et al. 2014; conditions: ref Filer et al. 2014, cited from earlier work; for AC50: PPARγ, NA = not active, read-out: NCGC Antag. AC50, 2014 Release
# Human PPARγ = conditions: PPARγ direct binding, NA = not active, cited from earlier work
# [1] = test system: mouse bone marrow-derived mesenchymal stem cells (mBMSCs); assay type: cell-based; conditions: for Induction of adipogenesis in mBMSCs, doses: lipid accumulation, Nile red/Hoechst; for Induction of adipogenesis in mBMSCs, doses / Adipogenic gene expression (Fabp4, Fsp27, Lpl), QPCR: Figure 2B; for Adipogenic gene expression (Fabp4, Fsp27, Lpl), QPCR: mBMSCs
# Description: A total of 8 × 10^4 cells/well mouse bone marrow-derived mesenchymal stem cells (mBMSCs) (OriCell™) were seeded in 12-well plates in basic medium: high-glucose DMEM (Hyclone) containing 10% calf bovine serum (Premium Select, Atlanta Biologicals), 100 IU/mL penicillin, 100 μg/mL streptomycin, and 1 mM sodium pyruvate. mBMSCs were induced to differentiate in differentiation media (low glucose αMEM containing 15% fetal bovine serum (Premium Select, Atlanta Biologicals), 100 IU/mL penicillin, 100 μg/mL streptomycin and 2 mM L-glutamine) with adipogenic cocktail (500 μM isometylbutylxanthine, 1 μM dexamethasone, 5 μg/mL insulin) and either 500 nM ROSI, 50 nM TBT or ToxCast™ chemicals (as noted for 3T3-L1 cells) for 14 days, replacing the media every 3 days.
# Cells were either fixed in 3.7% formaldehyde in phosphate-buffered saline (PBS) for 30 min at room temperature (RT) for lipid quantitation, or homogenized in TriPure (Roche, Mannheim, Germany) for gene expression analysis. For lipid quantitation, fixed cells were washed twice with PBS and maintained in PBS overnight at 4°C to release residual phenol red. Background of cells were measured prior to staining. Cells were stained with 1 μg/mL Nile red (CAS No. 7385-67-3) (to detect lipid accumulation) and 1 μg/mL Hoechst 33342 (ThermoFisher Scientific) (to detect nuclei as a surrogate for cell number) in PBS for 15 min in the dark at RT and washed twice with PBS. […] Background values of Hoechst and Nile red were subtracted from the RFUs after staining and the ratio RFUNile Red:RFUHoechst was calculated. Data are represented as mean ± SEM. Total RNA was isolated using TriPure (Roche) as recommended by the manufacturer. Reverse transcription and quantitative real-time RT-PCR (QPCR) were performed using Transcriptor RT and SYBR® Green Master Mix (Roche). cDNA was quantitated in a LightCycler® 480 System (Roche Diagnostics, Basel, Switzerland) using primer sets listed in Table S4. Each primer set amplified a single band as determined by gel electrophoresis and melting curve analysis. QPCR data were analyzed using the 2^ΔΔCt method ([Livak and Schmittgen 2001]) relative to ribosomal protein 36b4, normalizing to 0.1% DMSO vehicle. Error bars represent the SEM from four to six biological replicates calculated using standard propagation of error ([Bevington and Robinson 2003]).
# PPRE = test system: PPRE; set-up: method as in Knudsen et al. 2011; conditions: ToxCast Phase I 2011 release; NA = not active; ref Knudsen et al. 2011; read-out: ATGC PPRE AC50; cited from earlier work
Compound,Adipogenesis 3T3-L1 (result in words) (3T3-L1 preadipocytes),"PPARγ antagonists: IC10, NCGC (PPARγ; AC10, ToxCast 2014 release)",AC50 (PPARγ),"IC50 (PPARγ; read-out: PPARγ antagonists: IC50, NCGC, gain AC50, ToxCast 2014 release)","AC50 (Human PPARγ; ref Filer et al. 2014, read-out: NVS Agonist AC50, 2014 Release)","AC50 (Human PPARγ; ref Knudsen et al. 2011, read-out: NVS Agonist AC50, 2011 Release)","Adipogenic differentiation of mBMSCs (result in words) ([1]; 14 days, Figure 7)",AC50 (PPRE),"Adipogenic gene expression (Fabp4, Fsp27, Lpl), QPCR (3T3-L1 preadipocytes)","Induction of adipogenesis in 3T3-L1 preadipocytes, doses (3T3-L1 preadipocytes)","Induction of adipogenesis in mBMSCs, doses ([1]; 14 days)","Adipogenic gene expression (Fabp4, Fsp27, Lpl), QPCR [1]",Lipid accumulation: TOXIC mark in place of bar (3T3-L1 preadipocytes),"Concentration toxic to 3T3-L1 cells (3T3-L1 preadipocytes; mouse, 5 days)",Lipid accumulation: TOXIC mark in place of bar [1],"Concentration toxic to mBMSCs ([1]; mouse, 14 days)"
O=[N+]([O-])c1cc(C(F)(F)F)c(Cl)c([N+](=O)[O-])c1Nc1ncc(C(F)(F)F)cc1Cl [Fluazinam],Negative,0.20 µM,1300 nM,1270 nM,260 nM,280 nM,,,,,,,,,,
Fc1ccc(Oc2ccnc3cc(Cl)cc(Cl)c23)cc1 [Quinoxyfen],Positive,,,,,,could differentiate these uncommitted stem cells into adipocytes,2800 nM,,,,,,,,
CCC(C)(C)C(=O)OC1=C(c2ccc(Cl)cc2Cl)C(=O)OC12CCCCC2 [Spirodiclofen],Positive,,,,,,,,increases,induced adipogenesis at all doses tested,induced adipogenesis at 10 and 20 μM,increases,,,,
CCC(C)(NC(=O)c1cc(Cl)c(C)c(Cl)c1)C(=O)CCl (stereo not drawn) [Zoxamide],Positive,,400 nM,,,,,,increases,induced adipogenesis at the lowest dose,induced differentiation at 2 and 10 μM,increases,TOXIC,≥ 10 µM,TOXIC,≥ 20 µM
